Assay results taken from article PMC9150124, “Design of a Potent, Selective, and Brain-Penetrant Inhibitor of Wnt-Deactivating Enzyme Notum by Optimization of a Crystallographic Fragment Hit” (Journal of Medicinal Chemistry, 2022).
≈ marks a conversion by molar mass, not a printed value. Where “and” joins values, the source holds several entries; their conditions need not be identical. Equal entries are not always repeated. Where two headings read alike, the source gives them in different places.

Experiments:
[1] = target: kinase named in conditions (Homo sapiens, UniProt O00443); test: SelectScreen kinase profiling, SSBK Adapta SP Technology; format: biochemical; details: PIK3C2A (PI3K-C2 alpha), 10 μM
[2] = target: kinase named in conditions (Homo sapiens, UniProt Q9UBF8); test: as above; format: biochemical; details: PI4KB (PI4K beta), 10 μM
[3] = target: kinase named in conditions (Homo sapiens, UniProt P42356); test: as above; format: biochemical; details: PI4KA (PI4K alpha), 10 μM
[4] = target: kinase named in conditions (Homo sapiens, UniProt Q99755); test: as above; format: biochemical; details: PIP5K1A, 10 μM
[5] = target: kinase named in conditions (Homo sapiens, UniProt Q14012); test: as above; format: biochemical; details: CAMK1 (CaMK1), 10 μM
[6] = target: kinase named in conditions (Homo sapiens, UniProt P42336, E542K); test: as above; format: biochemical; details: PIK3CA E542K/PIK3R1 (p110 alpha E542K/p85 alpha), 10 μM
[7] = target: kinase named in conditions (Homo sapiens, UniProt P42336, E545K); test: as above; format: biochemical; details: PIK3CA E545K/PIK3R1 (p110 alpha E545K/p85 alpha), 10 μM
[8] = target: kinase named in conditions (Homo sapiens, UniProt Q9BTU6); test: as above; format: biochemical; details: PI4K2A (PI4K2 alpha), 10 μM
Sequence of kinase named in conditions (Homo sapiens, UniProt Q9BTU6) (Q9BTU6 whole entry): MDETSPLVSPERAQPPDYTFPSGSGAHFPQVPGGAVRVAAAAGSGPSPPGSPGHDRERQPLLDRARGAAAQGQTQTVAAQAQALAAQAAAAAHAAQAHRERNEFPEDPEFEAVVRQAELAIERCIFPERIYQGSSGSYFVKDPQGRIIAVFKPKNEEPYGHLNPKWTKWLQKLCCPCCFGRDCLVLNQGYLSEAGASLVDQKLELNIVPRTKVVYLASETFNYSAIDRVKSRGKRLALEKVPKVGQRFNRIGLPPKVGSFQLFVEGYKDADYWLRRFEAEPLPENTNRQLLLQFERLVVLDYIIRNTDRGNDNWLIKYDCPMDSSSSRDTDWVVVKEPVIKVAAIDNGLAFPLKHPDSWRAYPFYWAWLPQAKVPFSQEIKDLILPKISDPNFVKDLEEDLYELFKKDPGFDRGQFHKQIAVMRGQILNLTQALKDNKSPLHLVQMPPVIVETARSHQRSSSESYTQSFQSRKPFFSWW

[9] = target: kinase named in conditions (Homo sapiens, UniProt P11802); test: as above; format: biochemical
[10] = target: kinase named in conditions (Homo sapiens, UniProt P48736); test: as above; format: biochemical; details: PIK3CG (p110 gamma), 10 μM
[11] = target: kinase named in conditions (Homo sapiens, UniProt O00329); test: as above; format: biochemical; details: PIK3CD/PIK3R1 (p110 delta/p85 alpha), 10 μM
Sequence of kinase named in conditions (Homo sapiens, UniProt O00329) (O00329 whole entry): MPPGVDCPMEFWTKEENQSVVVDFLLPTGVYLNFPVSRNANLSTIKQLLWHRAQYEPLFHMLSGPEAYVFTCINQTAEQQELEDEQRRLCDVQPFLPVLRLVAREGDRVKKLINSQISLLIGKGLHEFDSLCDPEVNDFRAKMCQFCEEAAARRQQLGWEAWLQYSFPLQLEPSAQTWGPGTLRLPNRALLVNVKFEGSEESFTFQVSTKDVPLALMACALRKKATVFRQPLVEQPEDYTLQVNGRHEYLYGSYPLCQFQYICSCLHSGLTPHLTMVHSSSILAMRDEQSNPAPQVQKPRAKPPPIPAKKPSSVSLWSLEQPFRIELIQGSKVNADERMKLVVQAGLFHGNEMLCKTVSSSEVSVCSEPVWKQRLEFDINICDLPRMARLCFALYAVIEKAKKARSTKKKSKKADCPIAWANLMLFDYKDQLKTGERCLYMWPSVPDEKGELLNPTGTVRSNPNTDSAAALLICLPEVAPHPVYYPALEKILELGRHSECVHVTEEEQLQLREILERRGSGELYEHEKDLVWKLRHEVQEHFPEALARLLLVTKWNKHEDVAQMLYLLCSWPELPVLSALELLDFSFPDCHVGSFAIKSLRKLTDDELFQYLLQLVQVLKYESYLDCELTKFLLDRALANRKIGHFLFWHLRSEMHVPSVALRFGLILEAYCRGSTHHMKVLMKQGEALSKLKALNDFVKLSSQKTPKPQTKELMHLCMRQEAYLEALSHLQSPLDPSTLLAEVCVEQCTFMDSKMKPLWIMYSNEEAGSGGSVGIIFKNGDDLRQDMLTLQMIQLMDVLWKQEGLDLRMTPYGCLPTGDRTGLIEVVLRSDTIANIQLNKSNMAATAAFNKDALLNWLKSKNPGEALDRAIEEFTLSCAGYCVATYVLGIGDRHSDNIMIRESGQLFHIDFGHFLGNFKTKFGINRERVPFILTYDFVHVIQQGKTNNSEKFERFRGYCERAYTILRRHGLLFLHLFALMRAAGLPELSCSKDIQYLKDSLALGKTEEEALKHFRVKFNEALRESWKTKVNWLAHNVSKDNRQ
Sequence of kinase named in conditions (Homo sapiens, UniProt O00329) (P27986 whole entry partner): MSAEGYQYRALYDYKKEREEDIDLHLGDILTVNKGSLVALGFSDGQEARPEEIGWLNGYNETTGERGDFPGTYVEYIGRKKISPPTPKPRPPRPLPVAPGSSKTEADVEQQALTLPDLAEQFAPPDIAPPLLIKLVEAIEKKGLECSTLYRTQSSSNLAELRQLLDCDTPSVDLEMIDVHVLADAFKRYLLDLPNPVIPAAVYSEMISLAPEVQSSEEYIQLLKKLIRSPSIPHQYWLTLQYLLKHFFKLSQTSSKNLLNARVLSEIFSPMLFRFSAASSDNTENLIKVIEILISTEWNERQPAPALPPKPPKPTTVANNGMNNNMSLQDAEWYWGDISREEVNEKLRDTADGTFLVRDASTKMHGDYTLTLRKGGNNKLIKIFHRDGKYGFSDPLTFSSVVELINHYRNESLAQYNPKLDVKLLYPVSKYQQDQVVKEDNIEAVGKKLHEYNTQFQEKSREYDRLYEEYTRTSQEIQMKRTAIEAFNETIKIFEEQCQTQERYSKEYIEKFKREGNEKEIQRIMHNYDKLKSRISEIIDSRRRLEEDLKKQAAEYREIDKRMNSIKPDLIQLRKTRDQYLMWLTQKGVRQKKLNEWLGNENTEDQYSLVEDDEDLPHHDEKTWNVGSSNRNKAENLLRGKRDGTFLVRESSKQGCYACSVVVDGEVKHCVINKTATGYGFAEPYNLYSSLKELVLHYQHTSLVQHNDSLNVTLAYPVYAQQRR

[12] = target: kinase named in conditions (Homo sapiens, UniProt P48426); test: as above; format: biochemical; details: PIP4K2A, 10 μM
[13] = target: kinase named in conditions (Homo sapiens, UniProt Q5S007); test: as above; format: biochemical; details: LRRK2 FL, 10 μM
[14] = target: kinase named in conditions (Homo sapiens, UniProt O60331); test: as above; format: biochemical; details: PIP5K1C, 10 μM
Sequence of kinase named in conditions (Homo sapiens, UniProt O60331) (O60331 whole entry): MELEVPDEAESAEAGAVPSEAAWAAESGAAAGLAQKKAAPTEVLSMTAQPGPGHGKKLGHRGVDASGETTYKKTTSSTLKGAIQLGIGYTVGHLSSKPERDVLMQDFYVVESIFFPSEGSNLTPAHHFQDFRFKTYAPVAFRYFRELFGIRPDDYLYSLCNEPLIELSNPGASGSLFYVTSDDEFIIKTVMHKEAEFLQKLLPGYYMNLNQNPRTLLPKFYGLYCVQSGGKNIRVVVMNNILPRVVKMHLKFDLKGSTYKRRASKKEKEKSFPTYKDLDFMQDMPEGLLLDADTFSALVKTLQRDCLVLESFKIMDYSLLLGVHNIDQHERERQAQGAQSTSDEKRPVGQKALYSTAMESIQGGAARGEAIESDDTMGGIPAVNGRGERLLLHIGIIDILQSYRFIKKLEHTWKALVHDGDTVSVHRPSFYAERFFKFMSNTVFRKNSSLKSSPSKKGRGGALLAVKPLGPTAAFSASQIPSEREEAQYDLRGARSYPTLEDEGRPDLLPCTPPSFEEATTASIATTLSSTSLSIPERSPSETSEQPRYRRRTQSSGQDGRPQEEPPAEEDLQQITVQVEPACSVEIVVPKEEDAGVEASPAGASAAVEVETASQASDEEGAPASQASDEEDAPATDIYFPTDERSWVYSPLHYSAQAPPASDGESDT

[15] = target: kinase named in conditions (Homo sapiens, UniProt P42338); test: as above; format: biochemical; details: 10 μM
[16] = target: kinase named in conditions (Homo sapiens, UniProt O00750); test: as above; format: biochemical; details: PIK3C2B (PI3K-C2 beta), 10 μM
[17] = target: kinase named in conditions (Homo sapiens, UniProt P50613); test: as above; format: biochemical; details: CDK7/cyclin H/MNAT1, 10 μM
Sequence of kinase named in conditions (Homo sapiens, UniProt P50613) (P50613 whole entry): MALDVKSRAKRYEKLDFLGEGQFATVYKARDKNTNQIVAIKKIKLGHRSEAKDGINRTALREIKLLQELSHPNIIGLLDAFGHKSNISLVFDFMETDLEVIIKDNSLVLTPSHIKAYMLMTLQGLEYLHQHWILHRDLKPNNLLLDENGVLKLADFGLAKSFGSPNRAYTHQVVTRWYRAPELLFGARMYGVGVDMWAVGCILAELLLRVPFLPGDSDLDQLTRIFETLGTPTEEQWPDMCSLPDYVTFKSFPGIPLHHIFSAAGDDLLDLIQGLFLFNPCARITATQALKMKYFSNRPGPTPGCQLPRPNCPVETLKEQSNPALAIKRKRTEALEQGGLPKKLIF
Sequence of kinase named in conditions (Homo sapiens, UniProt P50613) (P51946 whole entry partner): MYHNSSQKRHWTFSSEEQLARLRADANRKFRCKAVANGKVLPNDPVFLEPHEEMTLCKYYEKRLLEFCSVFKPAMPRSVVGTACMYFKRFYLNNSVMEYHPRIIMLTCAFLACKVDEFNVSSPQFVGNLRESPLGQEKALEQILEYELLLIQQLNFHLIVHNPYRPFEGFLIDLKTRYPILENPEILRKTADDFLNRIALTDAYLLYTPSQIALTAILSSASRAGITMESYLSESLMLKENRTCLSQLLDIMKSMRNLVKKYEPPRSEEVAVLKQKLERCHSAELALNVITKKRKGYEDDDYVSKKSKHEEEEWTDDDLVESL
Sequence of kinase named in conditions (Homo sapiens, UniProt P50613) (P51948 whole entry partner): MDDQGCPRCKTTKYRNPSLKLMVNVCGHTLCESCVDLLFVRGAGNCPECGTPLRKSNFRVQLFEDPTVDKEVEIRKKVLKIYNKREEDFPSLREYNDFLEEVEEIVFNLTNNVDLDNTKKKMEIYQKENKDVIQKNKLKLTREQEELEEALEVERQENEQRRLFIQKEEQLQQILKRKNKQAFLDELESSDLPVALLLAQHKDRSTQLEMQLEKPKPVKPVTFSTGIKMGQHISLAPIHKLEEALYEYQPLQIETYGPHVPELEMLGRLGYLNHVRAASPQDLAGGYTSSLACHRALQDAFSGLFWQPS

[18] = target: kinase named in conditions (Homo sapiens, UniProt P42336); test: as above; format: biochemical; details: 10 μM
[19] = target: kinase named in conditions (Homo sapiens, UniProt O15111); test: as above; format: biochemical; details: CHUK (IKK alpha), 10 μM
[20] = target: kinase named in conditions (Homo sapiens, UniProt Q8TCG2); test: as above; format: biochemical; details: PI4K2B (PI4K2 beta), 10 μM
[21] = target: CYP2C19 (Homo sapiens, UniProt P33261); test: CYP450 inhibition in HLM
Sequence of CYP2C19 (P33261 whole entry): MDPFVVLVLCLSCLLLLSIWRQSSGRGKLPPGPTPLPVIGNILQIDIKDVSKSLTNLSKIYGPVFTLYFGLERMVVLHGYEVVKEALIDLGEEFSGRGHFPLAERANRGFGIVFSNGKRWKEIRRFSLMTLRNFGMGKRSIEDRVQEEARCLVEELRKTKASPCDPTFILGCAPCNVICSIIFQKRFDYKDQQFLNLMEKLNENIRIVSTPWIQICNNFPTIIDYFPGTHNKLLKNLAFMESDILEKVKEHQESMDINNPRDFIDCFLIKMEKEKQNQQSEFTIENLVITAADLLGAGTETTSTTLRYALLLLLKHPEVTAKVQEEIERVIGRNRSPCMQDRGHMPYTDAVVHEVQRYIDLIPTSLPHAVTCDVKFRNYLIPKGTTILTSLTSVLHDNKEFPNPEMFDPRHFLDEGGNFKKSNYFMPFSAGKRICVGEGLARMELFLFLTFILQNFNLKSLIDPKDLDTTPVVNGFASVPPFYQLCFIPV

[22] = Aqueous solubility in PBS (pH 7.4); format: physicochemical
Source text: Biosciences (Hyderabad, India) or WuXi AppTec (Shanghai, China).
Table S1: Representative assay protocol

[23] = test system: 47 human off-target liabilities; test: DiscoverX Safety47 panel (78 functional assays); details: @ 30 μM
Protocol: Screening for off-target pharmacology across multiple drug target classes was performed in the DiscoverX Safety47 panel as the SAFETYscan E/IC50 ELECT service by Eurofins (San Diego CA, U.S.A.). Assay information and data are presented in the Supporting Information.
Safety pharmacology studies
Screening for off-target pharmacology across multiple drug target classes was performed in the DiscoverX Safety47™ panel as the SAFETYscan E/IC50 ELECT service by eurofins (San Diego CA, U.S.A.). The assays were performed utilizing the PathHunter enzyme fragment complementation (EFC) technology, FLIPR®-based cellular screening assays, KINOMEscan kinase binding assays, and a variety of enzymatic assays (78 assays).

[24] = target: CYP3A4 (Homo sapiens, UniProt P08684); test: CYP450 inhibition in HLM
Sequence of CYP3A4 (P08684 whole entry): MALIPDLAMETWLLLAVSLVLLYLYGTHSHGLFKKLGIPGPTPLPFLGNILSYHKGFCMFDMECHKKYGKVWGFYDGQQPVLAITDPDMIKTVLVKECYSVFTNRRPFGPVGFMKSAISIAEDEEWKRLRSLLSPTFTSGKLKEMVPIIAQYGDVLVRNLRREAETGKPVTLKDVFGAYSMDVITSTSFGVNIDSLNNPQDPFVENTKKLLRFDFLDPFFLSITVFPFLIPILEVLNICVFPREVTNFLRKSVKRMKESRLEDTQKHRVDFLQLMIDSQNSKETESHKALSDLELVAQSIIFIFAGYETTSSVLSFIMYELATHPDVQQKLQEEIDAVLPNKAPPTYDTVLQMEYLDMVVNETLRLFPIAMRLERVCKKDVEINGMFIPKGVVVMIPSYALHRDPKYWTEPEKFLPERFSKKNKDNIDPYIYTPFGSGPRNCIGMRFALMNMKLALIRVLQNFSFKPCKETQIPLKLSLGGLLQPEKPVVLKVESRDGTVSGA

## FC(F)(F)c1c(Cl)ccc(-n2ccnn2)c1Cl [8l, 1-(2,4-Dichloro-3-(trifluoromethyl)phenyl)-1H-1,2,3-triazole]
[1]
  inhibition at 10 µM: -10%
[2]
  inhibition at 10 µM: 1%
[3]
  inhibition at 10 µM: -4%
[4]
  inhibition at 10 µM: 0%
[5]
  inhibition at 10 µM: 11%
[6]
  inhibition at 10 µM: 6%
[7]
  inhibition at 10 µM: 8%
[8]
  inhibition at 10 µM: 13%
[9]; CDK4/cyclin D1, 10 μM
  inhibition at 10 µM: 6%
[9]; CDK4/cyclin D3, 10 μM
  inhibition at 10 µM: 4%
[10]
  inhibition at 10 µM: -15%
[11]
  inhibition at 10 µM: -25%
[12]
  inhibition at 10 µM: -1%
[13]
  inhibition at 10 µM: 7%
[14]
  inhibition at 10 µM: -2%
[15]; PIK3CB/PIK3R1 (p110 beta/p85 alpha)
  inhibition at 10 µM: 1%
[15]; PIK3CB/PIK3R2 (p110 beta/p85 beta)
  inhibition at 10 µM: 15%
[16]
  inhibition at 10 µM: 8%
[17]
  inhibition at 10 µM: -3%
[18]; PIK3CA/PIK3R1 (p110 alpha/p85 alpha)
  inhibition at 10 µM: -6%
[18]; PIK3CA/PIK3R3 (p110 alpha/p55 gamma)
  inhibition at 10 µM: 0%
[19]
  inhibition at 10 µM: 4%
[20]
  inhibition at 10 µM: 16%
[21]
  IC50: 7.27 µM
[21]; read-out: CYP inhibition IC50, 2C19, HLM
  IC50: 8.1 µM
[21]; read-out: IC50 CYP2C19/S-Mephenytoin, (+)NADPH pre-incubation
  IC50: 8.07 µM
[22]; PBS pH 7.4, read-out: aq. solubility
  solubility: 68 µg/mL and 240 µM
[22]; PBS, pH 7.4, n = 2, read-out: Thermodynamic Solubility @ RT, mean
  solubility thermodynamic: 68 µg/mL (≈ 241 µM)
[23]
  assays with >50% activity: 3/78
[24]; read-out: CYP inhibition IC50, 3A4(mid.), HLM, midazolam
  IC50: > 50 µM
[24]; read-out: CYP inhibition IC50, 3A4(test.), HLM, testosterone
  IC50: > 50 µM
[24]; read-out: IC50 CYP3A4/Midazolam, (+)NADPH pre-incubation
  IC50: > 50 µM
[24]; read-out: IC50 CYP3A4/Midazolam, (-)NADPH pre-incubation
  IC50: > 50 µM
[24]; read-out: IC50 CYP3A4/Testosterone, (+)NADPH pre-incubation
  IC50: > 50 µM
[24]; read-out: IC50 CYP3A4/Testosterone, (-)NADPH pre-incubation
  IC50: > 50 µM
